# Laboratory results published in US4176185A, “Spiro-quinolylhydantoins” (Pfizer Inc., priority 1979, dated 1979).
# Experiments:
# [1] = tested on: sorbitol accumulation in the sciatic nerve; experiment: inhibition of sorbitol accumulation in the sciatic nerve of streptozotocinized (diabetic) rats; type: in vivo, rat; settings: measured 27 h after induction of diabetes, vs untreated
# Text: (§1) The activity of the compounds of the present invention as agents for the control of chronic diabetic complications may be determined by a number of standard biological or pharmacological tests. Suitable tests include (1) measuring their ability to inhibit the enzyme activity of isolated aldose reductase; (2) measuring their ability to reduce or inhibit sorbitol accumulation in the sciatic nerve of acutely streptozotocinized (i.e. diabetic) rats; (3) measuring their ability to reverse already-elevated sorbitol levels in the sciatic nerve and lens of chronic streptozotocin-induced diabetic rats; (4) measuring their ability to prevent or inhibit galactitol formation in the lens of acutely galactosemic rats; and (5) measuring their ability to delay cataract formation and reduce the severity of lens opacities in chronic galactosemic rats.
# The compounds of Examples 3 and 6 were tested for their ability to reduce or inhibit sorbitol accumulation in the sciatic nerve of streptozotocinized (i.e. diabetic) rats by the procedure essentially described in U.S. Pat. No. 3,821,383. In the present study, the amount of sorbitol accumulation in the sciatic nerves was measured 27 hours after induction of diabetes. The compounds were administered orally at the dose levels indicated at 4, 8 and 24 hours following the administration of streptozotocin. […]
# [2] = tested on: aldose reductase; experiment: inhibition of aldose reductase enzyme activity; type: biochemical; settings: partially purified aldose reductase from calf lens
# Text: as §1
# The compounds of Examples 3 and 6 were tested for their ability to reduce or inhibit aldose reductase enzyme activity, following the procedure described in U.S. Pat. No. 3,821,383 and based on the procedure of Hayman et. al., Journal of Biological Chemistry, 240, 877 (1965). The substrate employed was partially purified aldose reductase enzyme obtained from calf lens. The results obtained with each compound at a concentration of 10^-4 M are expressed as percent inhibition of enzyme activity.
% Inhibition at 10^-4 M (aldose reductase enzyme activity) [2] [%],Compound,"% Inhibition (sorbitol accumulation in sciatic nerve) ([1]; 1.5 mg/kg oral at 4, 8 and 24 h after streptozotocin) [%]","% Inhibition (sorbitol accumulation in sciatic nerve) ([1]; 10 mg/kg oral at 4, 8 and 24 h after streptozotocin) [%]"
75,O=C1NC(=O)C2(CCOc3c2ccc2cccnc32)N1 (stereo not shown) [Example 3],27,
94,O=C1NC(=O)C2(CCOc3c2ccc2ncccc32)N1 (stereo not shown) [Example 6],,92
